Experimental data published in US20130295055A1 (priority 2011, published 2013).
Read-outs that look alike come from different tables or passages of the source.

Key:
Format in all cases: cell-based
[1] = test system: Avian influenza virus AIV0028 (H9N2); conditions: Soft Water (Distilled Water)
[2] = test system: Standard strain Listeria; assay: Sterilization effectiveness on Listeria (number of bacteria over time)
[3] = test system: Standard strain E. coli; assay: Sterilization effectiveness on E. coli (number of bacteria over time)
[4] = test system: Salmonella typhimurium ATCC 19585 and Salmonella typhimurium ATCC 43174; assay: Sterilization effectiveness on Salmonella (number of bacteria over time)
Method: Inhibitory effect was evaluated by measuring total numbers of bacteria over time, and the number of bacteria was expressed as log10 CFU/ml.
Standard strains Salmonella typhimurium ATCC 19585 and Salmonella typhimurium ATCC 43174 were purchased from American Type culture collection, and were incubated in Rappaport-Vassiliadis Soya Peptone Broth (CM0866, Oxoid, the United Kingdom) in a bacterial incubator at 37° C. for 24 hours. Total number of bacteria was measured by diluting strains at stationary phase to 6 to 7 log(cfu/mL).
0.2% peptone water was used as a diluent, and the smeared plate medium was incubated in a 37° C. bacterial incubator for 24 hours, and the number of white single colony was counted. Evaluation was carried out with the average of triplicate.
Malic acid was added to be 0.5%, 1.0%, 2.0%, respectively, to the prepared single colony of Salmonella, and the inhibitory effect on Salmonella over time was examined.

O=C(O)CC(O)(CC(=O)O)C(=O)O [Citric Acid, citric acid]
Avian Influenza Titer ([1]; Citric Acid Concentration 2%, Dilution Rate 1:12.5): 1.25 log 10 | Avian Influenza Titer ([1]; Citric Acid Concentration 2%, Dilution Rate 1:25): 2.00 log 10 | Avian Influenza Titer ([1]; Citric Acid Concentration 4%, Dilution Rate 1:50): 2.00 log 10 | Avian Influenza Titer ([1]; Citric Acid Concentration 6%, Dilution Rate 1:50): 2.00 log 10 | Avian Influenza Titer ([1]; Citric Acid Concentration 8%, Dilution Rate 1:50): 0.75 log 10

O=C(O)CC(O)(CC(=O)O)C(=O)O [SAL + BROTH (CA 0.5%), citric acid]
number of Listeria bacteria ([2]; 0 min): 8.62 log10 CFU/ml | number of Listeria bacteria ([2]; 10 min, listed as LIS + BROTH (CA 0.5%)): 8.52 log10 CFU/ml | number of Listeria bacteria ([2]; 20 min, listed as LIS + BROTH (CA 0.5%)): 8.48 log10 CFU/ml | number of Listeria bacteria ([2]; 30 min, listed as LIS + BROTH (CA 0.5%)): 8.51 log10 CFU/ml | number of Listeria bacteria ([2]; 60 min, listed as LIS + BROTH (CA 0.5%)): 8.39 log10 CFU/ml | number of E. coli bacteria ([3]; 0 min): 8.72 log10 CFU/ml | number of E. coli bacteria ([3]; 10 min, listed as EC + Broth (CA 0.5%)): 8.70 log10 CFU/ml | number of E. coli bacteria ([3]; 20 min, listed as EC + Broth (CA 0.5%)): 8.64 log10 CFU/ml | number of E. coli bacteria ([3]; 30 min, listed as EC + Broth (CA 0.5%)): 8.66 log10 CFU/ml | number of E. coli bacteria ([3]; 60 min, listed as EC + Broth (CA 0.5%)): 8.67 log10 CFU/ml

O=C(O)CC(O)(CC(=O)O)C(=O)O [SAL + BROTH (CA 1.0%), citric acid]
number of Listeria bacteria ([2]; 0 min): 8.62 log10 CFU/ml | number of Listeria bacteria ([2]; 10 min, listed as LIS + BROTH (CA 1.0%)): 8.47 log10 CFU/ml | number of Listeria bacteria ([2]; 20 min, listed as LIS + BROTH (CA 1.0%)): 8.48 log10 CFU/ml | number of Listeria bacteria ([2]; 30 min, listed as LIS + BROTH (CA 1.0%)): 8.41 log10 CFU/ml | number of Listeria bacteria ([2]; 60 min, listed as LIS + BROTH (CA 1.0%)): 8.42 log10 CFU/ml | number of E. coli bacteria ([3]; 0 min): 8.72 log10 CFU/ml | number of E. coli bacteria ([3]; 10 min, listed as EC + Broth (CA 1.0%)): 8.71 log10 CFU/ml | number of E. coli bacteria ([3]; 20 min, listed as EC + Broth (CA 1.0%)): 8.65 log10 CFU/ml | number of E. coli bacteria ([3]; 30 min, listed as EC + Broth (CA 1.0%)): 8.70 log10 CFU/ml | number of E. coli bacteria ([3]; 60 min, listed as EC + Broth (CA 1.0%)): 8.71 log10 CFU/ml

O=C(O)CC(O)(CC(=O)O)C(=O)O [SAL + BROTH (CA 2.0%), citric acid]
number of Listeria bacteria ([2]; 0 min): 8.62 log10 CFU/ml | number of Listeria bacteria ([2]; 10 min, listed as LIS + BROTH (CA 2.0%)): 8.37 log10 CFU/ml | number of Listeria bacteria ([2]; 20 min, listed as LIS + BROTH (CA 2.0%)): 8.37 log10 CFU/ml | number of Listeria bacteria ([2]; 30 min, listed as LIS + BROTH (CA 2.0%)): 8.38 log10 CFU/ml | number of Listeria bacteria ([2]; 60 min, listed as LIS + BROTH (CA 2.0%)): 8.40 log10 CFU/ml | number of E. coli bacteria ([3]; 0 min): 8.72 log10 CFU/ml | number of E. coli bacteria ([3]; 10 min, listed as EC + Broth (CA 2.0%)): 8.71 log10 CFU/ml | number of E. coli bacteria ([3]; 20 min, listed as EC + Broth (CA 2.0%)): 8.67 log10 CFU/ml | number of E. coli bacteria ([3]; 30 min, listed as EC + Broth (CA 2.0%)): 8.65 log10 CFU/ml | number of E. coli bacteria ([3]; 60 min, listed as EC + Broth (CA 2.0%)): 8.61 log10 CFU/ml

O=C(O)CC(O)C(=O)O (centres unmarked) [SAL + BROTH (MA 0.5%), malic acid]
number of Listeria bacteria ([2]; 0 min): 8.67 log10 CFU/ml | number of Listeria bacteria ([2]; 10 min, listed as LIS + BROTH (MA 0.5%)): 8.55 log10 CFU/ml | number of Listeria bacteria ([2]; 20 min, listed as LIS + BROTH (MA 0.5%)): 8.61 log10 CFU/ml | number of Listeria bacteria ([2]; 30 min, listed as LIS + BROTH (MA 0.5%)): 8.56 log10 CFU/ml | number of Listeria bacteria ([2]; 60 min, listed as LIS + BROTH (MA 0.5%)): 8.58 log10 CFU/ml | number of Salmonella bacteria ([4]; 0 min): 9.02 log10 CFU/ml | number of Salmonella bacteria ([4]; 10 min): 9.04 log10 CFU/ml | number of Salmonella bacteria ([4]; 20 min): 9.05 log10 CFU/ml | number of Salmonella bacteria ([4]; 30 min): 9.04 log10 CFU/ml | number of Salmonella bacteria ([4]; 60 min): 9.09 log10 CFU/ml | number of E. coli bacteria ([3]; 0 min): 8.61 log10 CFU/ml | number of E. coli bacteria ([3]; 10 min, listed as EC + Broth (MA 0.5%)): 8.67 log10 CFU/ml | number of E. coli bacteria ([3]; 20 min, listed as EC + Broth (MA 0.5%)): 8.66 log10 CFU/ml | number of E. coli bacteria ([3]; 30 min, listed as EC + Broth (MA 0.5%)): 8.86 log10 CFU/ml | number of E. coli bacteria ([3]; 60 min, listed as EC + Broth (MA 0.5%)): 8.79 log10 CFU/ml

O=C(O)CC(O)C(=O)O (centres unmarked) [SAL + BROTH (MA 1.0%), malic acid]
number of Listeria bacteria ([2]; 0 min): 8.67 log10 CFU/ml | number of Listeria bacteria ([2]; 10 min, listed as LIS + BROTH(MA 1.0%)): 8.69 log10 CFU/ml | number of Listeria bacteria ([2]; 20 min, listed as LIS + BROTH(MA 1.0%)): 8.60 log10 CFU/ml | number of Listeria bacteria ([2]; 30 min, listed as LIS + BROTH(MA 1.0%)): 8.60 log10 CFU/ml | number of Listeria bacteria ([2]; 60 min, listed as LIS + BROTH(MA 1.0%)): 8.59 log10 CFU/ml | number of Salmonella bacteria ([4]; 0 min): 9.02 log10 CFU/ml | number of Salmonella bacteria ([4]; 10 min): 9.03 log10 CFU/ml | number of Salmonella bacteria ([4]; 20 min): 9.04 log10 CFU/ml | number of Salmonella bacteria ([4]; 30 min): 9.04 log10 CFU/ml | number of Salmonella bacteria ([4]; 60 min): 8.88 log10 CFU/ml | number of E. coli bacteria ([3]; 0 min): 8.61 log10 CFU/ml | number of E. coli bacteria ([3]; 10 min, listed as EC + Broth (MA 1.0%)): 8.78 log10 CFU/ml | number of E. coli bacteria ([3]; 20 min, listed as EC + Broth (MA 1.0%)): 8.74 log10 CFU/ml | number of E. coli bacteria ([3]; 30 min, listed as EC + Broth (MA 1.0%)): 8.77 log10 CFU/ml | number of E. coli bacteria ([3]; 60 min, listed as EC + Broth (MA 1.0%)): 8.94 log10 CFU/ml

O=C(O)CC(O)C(=O)O (centres unmarked) [SAL + BROTH (MA 2.0%), malic acid]
number of Listeria bacteria ([2]; 0 min): 8.67 log10 CFU/ml | number of Listeria bacteria ([2]; 10 min, listed as LIS + BROTH(MA 2.0%)): 8.51 log10 CFU/ml | number of Listeria bacteria ([2]; 20 min, listed as LIS + BROTH(MA 2.0%)): 8.62 log10 CFU/ml | number of Listeria bacteria ([2]; 30 min, listed as LIS + BROTH(MA 2.0%)): 8.55 log10 CFU/ml | number of Listeria bacteria ([2]; 60 min, listed as LIS + BROTH(MA 2.0%)): 8.61 log10 CFU/ml | number of Salmonella bacteria ([4]; 0 min): 9.02 log10 CFU/ml | number of Salmonella bacteria ([4]; 10 min): 8.88 log10 CFU/ml | number of Salmonella bacteria ([4]; 20 min): 8.73 log10 CFU/ml | number of Salmonella bacteria ([4]; 30 min): 8.63 log10 CFU/ml | number of Salmonella bacteria ([4]; 60 min): 7.50 log10 CFU/ml | number of E. coli bacteria ([3]; 0 min): 8.61 log10 CFU/ml | number of E. coli bacteria ([3]; 10 min, listed as EC + Broth (MA 2.0%)): 8.69 log10 CFU/ml | number of E. coli bacteria ([3]; 20 min, listed as EC + Broth (MA 2.0%)): 8.68 log10 CFU/ml | number of E. coli bacteria ([3]; 30 min, listed as EC + Broth (MA 2.0%)): 8.79 log10 CFU/ml | number of E. coli bacteria ([3]; 60 min, listed as EC + Broth (MA 2.0%)): 8.63 log10 CFU/ml
